Data from article PMC7402526, “An in vitro quantitative systems pharmacology approach for deconvolving mechanisms of drug-induced, multilineage cytopenias” (PLoS Computational Biology, 2020).
pEC50: −log10 of the molar value.

Columns and labels:
Type in all cases: cell-based, human
[1] = system: hematopoietic stem cells (HSCs); experiment: Multi-lineage toxicity assay (MLTA), HSCs: concentration-response and QSP model fit; conditions: Homo sapiens, Hematopoietic stem cell
Description: (§1) A custom optimized cytokine cocktail was developed using commercially available cytokines (Peprotech, New Jersey) to facilitate simultaneous multi-lineage differentiation and self-renewal of freeze-thawed primary human bone marrow-derived CD34+ cells in SFEM II media (cells and media from StemCell Technologies, Vancouver). Cultures were carried out in ultra-low attachment 96-well plates (Corning, New York) with test article added on day 0 and cultured at 37°C, 85% relative humidity, and 5% CO2 for six days before interrogating drug impact via 17-parameter flow cytometry.
(§2) The flow cytometry panel used to define hematopoietic subsets was composed of CD34-PECy7, CD90-PECY5, CD38-AF488, CD371-PE, CD45Ra-BV421, CD14-BV605, CD42b-AF647, CD10-PEDazzle594, CD235a-PerCPCy5.5 (BioLegend, California), CD15-BUV395, CD41a-APCH7, CD71-BV786 (BD Biosciences, California), and DAPI for dead cell exclusion (ThermoFisher, California). In short, Day 6 cells were harvested, FcR-blocked (FcR binding inhibitor, ThermoFisher), surface-stained, then analyzed in a buffer containing TruCount Control Beads using a BD LSR Fortessa SORP fitted with a high-throughput sampler (BD Biosciences, California). Data was analyzed in Diva 6.0.2 and exported to CSV where after all cell data was transformed to cell per mL then normalized on a per-donor basis to untreated control wells to determine drug impact.
(§3) Donor material was collected and cultured as described above. The number of replicate donor samples per drug ranged from 2–7 and varied per drug (S1 Table). Drug treatment was added at time 0 and cells were maintained in culture for 6 days. Concentrations tested for each drug compound are contained in S1 Table. Concentrations were selected to span a range that is clinically useful. Following treatment, cell populations were measured using flow cytometry. We extracted cell counts from flow cytometry data, normalized to bead counts, and corrected for well volume.
(§4) Each well was normalized to the average of six vehicle control wells. For drugs that were tested across multiple runs of the assay, vehicle-normalized donor data were pooled, and we used the average of these pooled data for further modeling. Normalized data used as model inputs are included in S1 Table.
(§5) We implemented drug effects using an Emax model for the drug’s effect on each cell type. The 13 maximum effect parameters (EmaxT,C) are unitless and can vary between 0 and 2 and where a subscript, C, represents one of the previously described 13 cell types. We adapted a traditional Emax model using the equations below. We interpreted EmaxT values less than or equal to one as anti-proliferative, and EmaxT values greater than one as indicating a cell-killing mechanism in addition to anti-proliferation. The relationships for these effects are included in the model using the following equations. Eq 2 describes the drug anti-proliferative effect in the net proliferation rate for a given cell type. Eq 3 describes the cell-killing EmaxCK effect.
(§6) Towards the estimation of mechanistic parameters, we considered different formulations: (a) weighting the objective value to prioritize fitting dead cells and (b) using regularization methodology to encourage a parsimonious solution. We assessed the contributions of these formulations using mean-squared error and goodness of fit plots for drugs with known mechanisms. […] Further, we used L1 regularization to penalize parameters […] to help identify a parsimonious set of parameters to explain drug effects.

[2] = system: multi-potent progenitors (MPPs); experiment: MLTA, MPPs: concentration-response and QSP model fit; conditions: Homo sapiens
Description: as §1, §2, §3, §4, §5, §6

[3] = system: granulocyte-macrophage progenitor (GMPs); experiment: MLTA, GMPs: concentration-response and QSP model fit; conditions: Homo sapiens; QSP model parameter, sheet EC50_parameters; GMPs
Description: as §1, §2, §3, §4, §5, §6

[4] = system: granulocyte progenitor (Gran-lin prog); experiment: MLTA, GranP: concentration-response and QSP model fit; conditions: Homo sapiens
Description: as §1, §2, §3, §4, §5, §6

granulocytes (Gran-lin) = experiment: MLTA, Gran: concentration-response and QSP model fit; conditions: Homo sapiens
Description: as §1, §2, §3, §4, §5, §6

[5] = system: monocyte progenitors (monocyte prog); experiment: MLTA, MonoP: concentration-response and QSP model fit; conditions: Homo sapiens, Monocyte
Description: as §1, §2, §3, §4, §5, §6

monocytes (monocyte-lin) = experiment: MLTA, Mono: concentration-response and QSP model fit; conditions: Homo sapiens, Monocyte
Description: as §1, §2, §3, §4, §5, §6

[6] = system: neutrophils (neutrophil-lin); experiment: MLTA, Neut: concentration-response and QSP model fit; conditions: Homo sapiens, Neutrophil
Description: as §1, §2, §3, §4, §5, §6

[7] = system: early erythroid cells (Eryth I); experiment: MLTA, ErythI: concentration-response and QSP model fit; conditions: Homo sapiens
Description: as §1, §2, §3, §4, §5, §6

[8] = system: late erythroid cells (Eryth II); experiment: MLTA, ErythII: concentration-response and QSP model fit; conditions: Homo sapiens
Description: as §1, §2, §3, §4, §5, §6

MK cells (MK-lin) = experiment: MLTA, MK: concentration-response and QSP model fit; conditions: Homo sapiens
Description: as §1, §2, §3, §4, §5, §6

[9] = system: lymphocyte progenitors (LymP); experiment: MLTA, LymP: concentration-response and QSP model fit; conditions: Homo sapiens, Lymphocyte
Description: as §1, §2, §3, §4, §5, §6

B cells (B-lin) = experiment: MLTA, B-lin: concentration-response and QSP model fit; conditions: Homo sapiens, B-cell
Description: as §1, §2, §3, §4, §5, §6

pEC50 ([2]; QSP model parameter, sheet EC50_parameters, MPPs): 6.37 | pEC50 [3]: 6.07 | pEC50 ([4]; QSP model parameter, sheet EC50_parameters, GranP, read-out: EC50GranP): 6.75 | pEC50 (granulocytes (Gran-lin); QSP model parameter, sheet EC50_parameters, Gran): 6.44 | pEC50 ([5]; QSP model parameter, sheet EC50_parameters, MonoP, read-out: EC50MonoP): 6.94 | pEC50 (monocytes (monocyte-lin); QSP model parameter, sheet EC50_parameters, Mono): 6.58 | pEC50 ([6]; QSP model parameter, sheet EC50_parameters, Neut): 7.05 | pEC50 ([7]; QSP model parameter, sheet EC50_parameters, Erythroid I, read-out: EC50ErythroidI): 5.93 | pEC50 ([8]; QSP model parameter, sheet EC50_parameters, Erythroid II, read-out: EC50ErythroidII): 6.76 | pEC50 (MK cells (MK-lin); QSP model parameter, sheet EC50_parameters, MK): 5.38 | pEC50 ([9]; QSP model parameter, sheet EC50_parameters, LymP): 6.62 | pEC50 (B cells (B-lin); QSP model parameter, sheet EC50_parameters, B): 6.37
SMILES: Cc1sc2c(c1C)C(c1ccc(Cl)cc1)=N[C@@H](CC(=O)Nc1ccc(O)cc1)c1nnc(C)n1-2 [OTX015]
Emax ([1]; 144 h, parameter from QSP model fitting, read-out: Emax_drug_HSC): 40.1% | pEC50 ([1]; QSP model parameter, sheet EC50_parameters, HSCs): 6.62 | Emax ([2]; 144 h, parameter from QSP model fitting, read-out: Emax_drug_MPP): 0.05% | Emax ([4]; 144 h, parameter from QSP model fitting, read-out: Emax_drug_GranP): 0.16% | Emax (granulocytes (Gran-lin); 144 h, parameter from QSP model fitting, read-out: Emax_drug_Gran): 126% | Emax ([5]; 144 h, parameter from QSP model fitting, read-out: Emax_drug_MonoP): 0.18% | Emax (monocytes (monocyte-lin); 144 h, parameter from QSP model fitting, read-out: Emax_drug_Mono): 37.5% | Emax ([6]; 144 h, parameter from QSP model fitting, read-out: Emax_drug_Neut): 16.7% | Emax ([7]; 144 h, parameter from QSP model fitting, read-out: Emax_drug_ErythroidI): 195% | Emax ([8]; 144 h, parameter from QSP model fitting, read-out: Emax_drug_ErythroidII): 12% | Emax (MK cells (MK-lin); 144 h, parameter from QSP model fitting, read-out: Emax_drug_MK): 26.9% | Emax ([9]; 144 h, parameter from QSP model fitting, read-out: Emax_drug_LymP): 115% | Emax (B cells (B-lin); 144 h, parameter from QSP model fitting, read-out: Emax_drug_B): 76.8%
